We go through one compound from US7700644B2, “Isoflavonoid dimers” (Novogen Research Pty Ltd, priority 2005, dated 2010).

Experiment [1] has as its system ear swelling in mice induced by the topical application of arachidonic acid (AA). The experiment in a line: Murine ear inflammation induced by arachidonic acid. Type of experiment: in vivo, Female BALB/c mice. The method, then:
Compound 2 was examined for its ability to inhibit ear swelling in mice induced by the topical application of arachidonic acid (AA). The inflammatory response due AA, the immediate precursor of the eicosanoids, is due to formation of AA metabolites via both the cyclooxygenase (COX) and lipoxygenase (LOX) pathways (Young et al. 1984). AA induces an early (10-15 min) increase in both PGE2 and LTC4 synthesis which precedes the increase in ear thickness (Opas et al. 1985; Chang et al. 1986).
Female BALB/c mice (ARC, WA, Australia), weighing 15-21 g were injected with Compound 2 delivered in polyethylene glycol (PEG) 400:phosphate buffered saline (PBS) 1:1 intraperitoneally (i/p) at a dose of 25 mg/kg 30 min prior to the application of AA being to the ears. Mice were anaesthetised using isoflurane and baseline thickness of both ears was measured using a spring micrometer. Each mouse received a total of […] of AA in ethanol (50 mg/ml) applied to the inner and outer surfaces of each pinna (i.e. 0.5 mg AA or 2 μg PMA per ear). […]
The difference in ear swelling pre- and post-application of AA for each ear was calculated, and the average for the two ears of each mouse calculated. The difference in mean swelling of each test group compared to the group given vehicle alone was calculated using a two-tailed unpaired t test (Prism 4, GraphPad Software).

Experiment [2] deals with UV irradiation-induced skin oedema. The experiment in a line: Murine model of UV irradiation-induced skin oedema. Type of experiment: in vivo, female Skh:hr-1 albino mice. As to conditions: for Change in skin thickness (mean ± SD, ×0.01 mm): dorsal skin fold, topical 0.2 ml of 20 μM at 30 min, 2 h, 4 h. The text has this: Groups of 4-5 female Skh:hr-1 albino mice were irradiated with 1×3 MEdD (minimal edematous dose) of solar simulated UV radiation (SSUV). Solar-simulated ultraviolet radiation (SSUV) was provided by a planar bank of 6 UVA tube (Hitachi 40W F40T 10/BL, black light) and one UVB tube (Philips TL 40W/12RS) with radiation filtered through a sheet of 0.125 mm cellulose acetate (Eastman Chemical Products, Kingport, Tenn., USA) to give 2.96×10-4W/cm2 UVA and 1.59×10-5W/cm2 UVB. The distance of the UV lamp from the irradiance table surface was approximately 20 cm and temperature was controlled with an electric fan. During irradiation, the cages were rotated below the lights to reduce the variation in radiation intensity in different positions.
Either test compound (0.2 ml of a 20 μM solution) or vehicle (propylene glycol/ethanol/water 1:2:1) was applied to the irradiated dorsal skin at 30 min, 2 h and 4 h post-irradiation. Dorsal skin fold measurements were made with a spring micrometer prior to and at 24 hr and 48 h post-UV exposure. The difference in skin thickness pre- and post-exposure to UVR was calculated for each mouse, and the differences examined between test compound and vehicle control were analysed using an unpaired two-tailed t test.

In the case of `COc1ccc(C23COc4c(ccc(O)c4C)C2C2c4ccc(O)c(C)c4OCC2c2cc(OC)c(OC)cc23)cc1OC` (stereo not drawn) [Cpd. 2, 4,9-Dihydroxy-14,15-dimethoxy-12a-(3′,4′-dimethoxyphenyl)-3,10-dimethyl-2,11-dioxa-(1H,12H)-6b,6c,12a,16b-tetrahydronaphtho[1,2-g]chrysene], in experiment [1] (25 mg/kg i/p 30 min prior to AA, 1 hr post-AA, vehicle 14.5 ± 4.7), the “Change in ear thickness (mean ± SD, ×0.01 mm)” value turned out to be 5.1 ± 1.7 ×0.01 mm. In addition, the “ear thickness compared with vehicle alone” value in experiment [1] (25 mg/kg i/p, AA-induced) is listed as “significant reduction”. Moreover, the “inhibition of skin oedema” value in experiment [2] (24 hrs post-irradiation) and in experiment [2] (48 hrs post-irradiation) was “significantly inhibited” throughout. For the same compound, the “Change in skin thickness (mean ± SD, ×0.01 mm)” value in experiment [2] (24 hrs post-irradiation, vehicle 78 ± 23) turned out to be 36 ± 22 ×0.01 mm; in experiment [2] (48 hrs post-irradiation, vehicle 147 ± 37), 105 ± 16 ×0.01 mm.
